What was measured:
[1] = biological target: T1, L-lactic dehydrogenase from rabbit muscle (LDH) (Oryctolagus cuniculus, UniProt P13491); test: Native MS glycan clustering to reference protein LDH; type: binding; settings: on LDH
T1 construct: L-lactic dehydrogenase from rabbit muscle (LDH, CAS number 9001-60-9); purchased Sigma-Aldrich (Merck, Germany); host or cells: rabbit muscle
Experimental: Prior to MS analysis, purified P dimers were buffer exchanged to 150 mM ammonium acetate (Sigma-Aldrich, reagent grade ≥98%) at pH 7 via centrifugal filter units at 12,000× g at 4 °C (Vivaspin 500, MWCO 10000, Sartorius). Glycans for native MS analysis were mixed with 1 µM (per monomer) purified GII.4 Saga P dimer and 3 µM of the reference proteins at indicated concentrations. Native mass spectra were measured at room temperature in positive ion mode on a high mass modified LCT Premier mass spectrometer (Waters/Micromass, UK and MS Vision, the Netherlands) with a nano-ESI source. In house-made gold-coated electrospray capillaries were used for direct-sample infusion without any accessory chromatographic separation. The voltages and pressures were optimized for non-covalent protein complexes. The gas pressure used in the source hexapole was set between 6.5 and 6.8 × 10^−2 mbar argon optimized for minimal complex dissociation and the backing pressure of the source roughing pump was set between 7.0 and 8.5 mbar. Spectra were recorded with applied voltages for the capillary and cone of 1.20 kV and 240 V, respectively. Note that charge state distributions for P dimers were sometimes slightly shifted as was the degree of glycan clustering per charge state. These changes were highly variable and not quantifiable.
For calibration of the raw data, a 25 mg/mL cesium iodide spectrum from the same day was used. MassLynx V4.1 (Waters, Manchester, UK) was used to assign peak series to protein species and to determine the mass after minimal smoothing. Furthermore, OriginPro 2016 SR2 (OriginLab, Northampton, MA, USA) was used for spectral deconvolution and curve fitting. Correction for nonspecific protein-ligand clustering was performed as described. Corrected peak areas were averaged and normalized to the free-protein signal. Data were based on at least three independent measurements. Python code Panda and Numpy package were used to calculate the specific binding of P dimers according to the glycan clustering ratio obtained from the selected reference protein candidates. Seaborn and matplotlib.pyplot package were imported into a python script to plot the results. The module of sklearn.linear model was applied for linear regression. The matplotlib and heatmap package were used to plot the heatmap.
Theoretically, the KD is calculated by measuring the concentration of the three components (Pfree, Lfree, PL) in solution. Usually, these values are only indirectly accessible because they require ligand titration up to binding saturation. However, native MS allows for the directly measurement of Pfree and PL, from which Lfree can be calculated using the input concentrations. In the present work, the non-covalent interaction was measured in the gas phase assuming identical ESI and detection efficiency for free and glycan-associated proteins, both for the analyte and the reference protein. […] For P dimers, the equations reflect glycan binding to the individual monomers assuming that binding sites on each monomer are equal and independent.
Using R described in Equation (3), the KD calculation can be re-written into Equation (4) with the known initial concentration of glycan ligand [L0] and protein [P0], adapted from Sun et al.:(3) R=PLequil∕Pequil=∑nA(PL^n+)∕n∕∑nA(P^n+)∕n (4) KD =L0−RP0/1+R/R
For the carbohydrate-binding experiments, it was essential to keep the initial protein concentrations and pH value constant during the analysis of the protein-carbohydrate solutions. While acidification occurs in any ESI droplet, the remaining solution in the capillary changes pH over time. Therefore, accumulated spectra were obtained within 10 min after the voltages were applied to minimize the influence of pH changes during the measurements. […]

[2] = system: mutated hNoV GII.4 MI001 P dimer; test: Native MS corrected glycan binding to mutated MI001 P domain; set-up: species or system human norovirus (hNoV); settings: cyt c reference; 100 µM glycan
[3] = biological target: wildtype GII.4 Saga P dimer; settings: wildtype P dimer; read-out: KD determined by NMR; cited from earlier work

Row | Compound | Glycan-Clustering Ratio R ([1]; 100 µM glycan) | Glycan-Clustering Ratio R ([1]; 200 µM glycan) | Glycan-Clustering Ratio R ([1]; 300 µM glycan) | Glycan-Clustering Ratio R ([1]; 400 µM glycan) | Glycan-Clustering Ratio R ([1]; 500 µM glycan) | corrected binding to mutated MI001 P dimer [2] | Kd [3]
1 | CC(=O)N[C@H]1[C@H](O[C@H]2[C@@H](O)[C@@H](CO)O[C@H](O[C@@H]3[C@H](O)[C@@H](O)[C@H](O[C@H]4[C@H](O)[C@@H](O)C(O)O[C@@H]4CO)O[C@@H]3CO)[C@@H]2O)O[C@H](CO)[C@H](O)[C@@H]1O (stereo partly drawn) [Gb4, GalNAc β1-3 Galα1-4Galβ1-4Glc] | 0.35±0.04 | 0.51±0.08 | 0.68±0.02 | 0.80±0.01 | 0.91±0.06 | basically no binding | 
2 | CC(=O)N[C@H]1C(O)O[C@H](CO)[C@@H](O)[C@@H]1O[C@@H]1O[C@H](CO)[C@H](O)[C@H](O[C@H]2O[C@H](CO)[C@H](O)[C@H](O)[C@H]2O)[C@H]1O[C@@H]1O[C@@H](C)[C@@H](O)[C@@H](O)[C@@H]1O (stereo partly drawn) [HBGA B, Galα1-3(Fucα1-2)Galβ1-3GlcNAc] | 0.38±0.03 | 0.54±0.05 | 0.69±0.02 | 0.77±0.05 | 1.02 ± 0.04 |  | 12 mM
